Measurements from patent US9375004B2 (Bayer Intellectual Property GmbH, priority 2010, dated 2016).

Test: logP by HPLC on reversed-phase column (EEC Directive 79/831 Annex V.A8)
Conditions: HPLC on a reversed-phase column (C 18), EEC Directive 79/831 Annex V.A8
`Cn1nc(C(F)F)c(C(=O)Nc2cccc(OCc3ccccc3)c2)c1Cl` [compound 253] gave a logP of 3.55. With `Cn1nc(C(F)F)c(C(=O)Nc2cccc(Sc3ccc(C(C)(C)C)cc3)c2)c1F` [compound 258] the logP was 4.98. Work on `CC(C)O/N=C/c1ccc(-c2cccc(NC(=O)c3c(C(F)F)nn(C)c3Cl)c2)cc1` [compound 246] yielded a logP of 4.66. `CC(C)O/N=C/c1ccc(-c2cccc(NC(=O)c3c(C(F)F)nn(C)c3F)c2)cc1` [compound 245] showed a logP of 4.46. In the case of `Cn1nc(C(F)F)c(C(=O)Nc2cccc(Sc3ccc(C(C)(C)C)cc3)c2)c1Cl` [compound 259], the logP is reported as 5.17. For `Cn1nc(C(F)F)c(C(=O)Nc2cccc(C#Cc3ccccc3)c2)c1F` [compound 249], the logP was 3.83. Work on `Cn1nc(C(F)F)c(C(=O)Nc2cccc(Oc3ccccc3)c2)c1Cl` [compound 251] yielded a logP of 3.56. In the case of `Cn1nc(C(F)F)c(C(=O)Nc2cccc(Oc3ccccc3)c2)c1F` [compound 250], the logP is reported as 3.35.

Same assay, conditions: HPLC on reversed-phase column (C 18), EEC Directive 79/831 Annex V.A8
In the case of `Cn1nc(C(F)F)c(C(=O)Nc2cccc(-c3cccc(OC(F)(F)F)c3)c2)c1Cl` [compound 241], the logP is reported as 4.31. `Cn1nc(C(F)F)c(C(=O)Nc2cccc3c2OCCO3)c1F` [compound 59] gave a logP of 2.44. For `CC(C)COc1ccc(-c2ccccc2NC(=O)c2c(C(F)F)nn(C)c2Cl)cc1` [compound 135], the logP was 4.96. In the case of `Cn1nc(C(F)F)c(C(=O)Nc2ccccc2-c2ccc(C(F)(F)F)cc2)c1Cl` [compound 120], the logP is reported as 3.94. `CC(C)c1ccc(-c2cccc(NC(=O)c3c(C(F)F)nn(C)c3F)c2)cc1` [compound 215] gave a logP of 4.46. `CC(C)=CCc1ccccc1NC(=O)c1c(C(F)F)nn(C)c1Cl` [compound 5] showed a logP of 3.35. For `Cn1nc(C(F)F)c(C(=O)Nc2cccc(-c3ccc(F)c(Cl)c3)c2)c1Cl` [compound 218], the logP was 4.11. For `Cn1nc(C(F)F)c(C(=O)Nc2cccc3c2OCCO3)c1Cl` [compound 58], the logP was 2.70. In the case of `CC(C)Oc1cccc(-c2ccccc2NC(=O)c2c(C(F)F)nn(C)c2Cl)c1` [compound 112], the logP is reported as 4.36. In the case of `Cn1nc(C(F)F)c(C(=O)Nc2ccccc2-c2cc(F)cc(F)c2)c1Cl` [compound 92], the logP is reported as 3.55. In the case of `Cc1cc(C)cc(-c2ccccc2NC(=O)c2c(C(F)F)nn(C)c2F)c1` [compound 81], the logP is reported as 4.11. Work on `CO/N=C(\C)c1ccc(-c2cccc(NC(=O)c3c(C(F)F)nn(C)c3Cl)c2)cc1` [compound 234] yielded a logP of 4.11. With `CC(C)Oc1cc(NC(=O)c2c(C(F)F)nn(C)c2F)c(Cl)cc1Cl` [compound 172] the logP was 4.41. In the case of `Cn1nc(C(F)F)c(C(=O)Nc2ccc3c(c2)OC(F)(F)O3)c1F` [compound 197], the logP is reported as 2.94. With `Cc1cc(C)cc(-c2ccccc2NC(=O)c2c(C(F)F)nn(C)c2Cl)c1` [compound 82] the logP was 4.51. `Cn1nc(C(F)F)c(C(=O)Nc2cccc(-c3ccc(Cl)cc3Cl)c2)c1Cl` [compound 230] gave a logP of 4.39. For `Cn1nc(C(F)F)c(C(=O)Nc2cc(Cl)ccc2SCC(F)(F)F)c1F` [compound 40], the logP was 3.92. In the case of `Cn1nc(C(F)F)c(C(=O)Nc2ccccc2-c2cccc(OC(F)(F)F)c2)c1Cl` [compound 143], the logP is reported as 4.11. Compound `CC(C)c1cccc(-c2cccc(NC(=O)c3c(C(F)F)nn(C)c3F)c2)c1` [compound 214] has a logP of 4.41. For `CC1CCCC(c2ccccc2NC(=O)c2c(C(F)F)nn(C)c2F)C1` (stereo not shown) [compound 52], the logP was 3.23. Work on `CC(C)O/N=C/c1ccc(-c2ccccc2NC(=O)c2c(C(F)F)nn(C)c2F)cc1` [compound 146] yielded a logP of 4.31. With `Cn1nc(C(F)F)c(C(=O)Nc2ccccc2OCC(C)(C)C)c1F` [compound 27] the logP was 4.08. In the case of `Cn1nc(C(F)F)c(C(=O)Nc2ccccc2Br)c1F` [compound 43], the logP is reported as 2.82. `Cn1nc(C(F)F)c(C(=O)Nc2cccc(OCC(C)(C)C)c2)c1Cl` [compound 183] gave a logP of 4.19. Work on `Cn1nc(C(F)F)c(C(=O)Nc2ccccc2-c2ccc(C(C)(C)C)cc2)c1F` [compound 109] yielded a logP of 4.73. `Cn1nc(C(F)F)c(C(=O)Nc2ccccc2OCc2ccccc2)c1F` [compound 158] showed a logP of 3.67. `CC(C)c1ccc(-c2ccccc2NC(=O)c2c(C(F)F)nn(C)c2Cl)cc1` [compound 97] gave a logP of 4.86. `C/C(=N\OC(C)(C)C)c1ccc(-c2ccccc2NC(=O)c2c(C(F)F)nn(C)c2Cl)cc1` [compound 157] showed a logP of 5.54. In the case of `CC(C)c1ccccc1NC(=O)c1c(C(F)F)nn(C)c1F` [compound 1], the logP is reported as 2.82. With `Cn1nc(C(F)F)c(C(=O)Nc2ccccc2-c2ccc([Si](C)(C)C)cc2)c1F` [compound 134] the logP was 4.98. Compound `Cn1nc(C(F)F)c(C(=O)Nc2ccccc2OC(F)(F)C(F)F)c1F` [compound 29] has a logP of 3.08. Work on `CC(C)=CCc1ccccc1NC(=O)c1c(C(F)F)nn(C)c1F` [compound 6] yielded a logP of 3.20. With `Cc1ccccc1-c1ccccc1NC(=O)c1c(C(F)F)nn(C)c1Cl` [compound 76] the logP was 4.14. Compound `Cn1nc(C(F)F)c(C(=O)Nc2cccc3c2OC(F)(F)O3)c1Cl` [compound 63] has a logP of 3.00. For `Cn1nc(C(F)F)c(C(=O)Nc2ccc3c(c2)OC(F)(F)C(F)(F)O3)c1Cl` [compound 200], the logP was 3.76. Compound `Cn1nc(C(F)F)c(C(=O)Nc2ccccc2C(C)(C)C)c1Cl` [compound 4] has a logP of 3.21. In the case of `Cn1nc(C(F)F)c(C(=O)Nc2cccc(Cl)c2SCC(F)F)c1F` [compound 33], the logP is reported as 3.53. Work on `CC(C)Oc1ccc(-c2cccc(NC(=O)c3c(C(F)F)nn(C)c3Cl)c2)cc1` [compound 224] yielded a logP of 4.19. With `Cn1nc(C(F)F)c(C(=O)Nc2ccccc2-c2ccc(C(C)(C)C)cc2)c1Cl` [compound 110] the logP was 5.14. `COCCOc1cccc(NC(=O)c2c(C(F)F)nn(C)c2F)c1` [compound 180] gave a logP of 2.15. Compound `CC(C)Oc1cccc(-c2cccc(NC(=O)c3c(C(F)F)nn(C)c3F)c2)c1` [compound 221] has a logP of 3.99. `Cn1nc(C(F)F)c(C(=O)Nc2cccc(-c3cc(F)cc(F)c3)c2)c1Cl` [compound 210] showed a logP of 3.83. With `CC(C)O/N=C/c1ccc(-c2ccccc2NC(=O)c2c(C(F)F)nn(C)c2Cl)cc1` [compound 147] the logP was 4.63. `CC(C)Oc1cc(NC(=O)c2c(C(F)F)nn(C)c2Cl)c(Cl)cc1Cl` [compound 173] showed a logP of 4.68. Work on `CC(C)Oc1ccc(-c2ccccc2NC(=O)c2c(C(F)F)nn(C)c2F)cc1` [compound 113] yielded a logP of 4.01. `C=C(C)COc1cccc(NC(=O)c2c(C(F)F)nn(C)c2Cl)c1` [compound 177] showed a logP of 3.33. With `Cn1nc(C(F)F)c(C(=O)Nc2cccc(Br)c2)c1Cl` [compound 190] the logP was 3.04. `Cn1nc(C(F)F)c(C(=O)Nc2cccc(-c3cccc(Cl)c3Cl)c2)c1Cl` [compound 228] gave a logP of 4.21. Compound `CC(C)Oc1cccc(NC(=S)c2c(C(F)F)nn(C)c2Cl)c1` [Example 171] has a logP of 3.41. In the case of `Cn1nc(C(F)F)c(C(=O)Nc2ccccc2-c2cc(Cl)cc(Cl)c2)c1Cl` [compound 128], the logP is reported as 4.31. Work on `Cn1nc(C(F)F)c(C(=O)Nc2cccc(-c3ccc(F)cc3)c2)c1Cl` [compound 204] yielded a logP of 3.59. In the case of `Cn1nc(C(F)F)c(C(=O)Nc2cc3c(cc2Br)OC(F)(F)O3)c1F` [compound 196], the logP is reported as 3.58. `Cn1nc(C(F)F)c(C(=O)Nc2ccccc2SCC2CC2(Cl)Cl)c1F` (stereo not shown) [compound 41] gave a logP of 3.27.
